{"source": "ChEMBL document CHEMBL3108750", "about": "“Solution structure of a sponge-derived cystine knot peptide and its notable stability” (J Nat Prod, 2014)", "key": {"[1]": {"experiment": "Cytotoxicity against human MCF10A cells assessed as cell viability up to 50 uM after 48 hrs by MTT assay", "type": "cell-based", "settings": "mcf-10a"}, "[2]": {"experiment": "Cytotoxicity against human HK2 cells assessed as cell viability up to 50 uM after 48 hrs by MTT assay", "type": "cell-based", "settings": "hk-2, 48 h"}}, "note": "Positions of bridges follow the written chain, without caps; N, C: chain ends. Residues, ends and D or L forms follow the SMILES beside them."}
{"smiles": "CC[C@H](C)[C@H](NC(=O)[C@@H](NC(=O)[C@H](Cc1ccc(O)cc1)NC(=O)[C@@H]1CSSC[C@@H]2NC(=O)[C@@H]3CCCN3C(=O)[C@H](CC(N)=O)NC(=O)[C@H](Cc3ccccc3)NC(=O)[C@H](CCC(=O)O)NC(=O)[C@H](C(C)C)NC(=O)[C@H](CC(=O)O)NC(=O)[C@@H]3CSSC[C@H](NC(=O)[C@H]([C@@H](C)O)NC(=O)[C@H](CC(C)C)NC(=O)[C@@H]4CCCN4C(=O)[C@@H]4CCCN4C(=O)[C@H](CSSC[C@H](N)C(=O)N4CCC[C@H]4C(=O)NCC(=O)N[C@@H](CCC(=O)O)C(=O)NCC(=O)N[C@@H](CCC(=O)O)C(=O)N[C@@H](CCC(N)=O)C(=O)N3)NC2=O)C(=O)N[C@@H]([C@@H](C)CC)C(=O)N2CCC[C@H]2C(=O)NCC(=O)N[C@@H](CC(=O)O)C(=O)N2CCC[C@H]2C(=O)N[C@@H](Cc2ccc(O)cc2)C(=O)NCC(=O)N[C@@H]([C@@H](C)CC)C(=O)N1)[C@@H](C)CC)C(=O)O", "note": "(H-CPGEGEQCDVEFNPCCPPLTCIPGDPYGICYII-OH; disulfide 1-16, 8-21, 15-30)", "values": [{"measurement": "Activity", "setting": "[1]", "result": "Non-toxic"}, {"measurement": "Activity", "setting": "[2]", "result": "Non-toxic"}]}
